We go through one compound from US20140038953A1, “COMPOSITIONS AND METHODS FOR CARDIOVASCULAR DISEASE” (THE GENERAL HOSPITAL CORPORATION, priority 2011, published 2014).

The structures appear in SMILES notation.

The test concerns HepG2 cells. Put plainly: ApoB-100 secretion in HepG2 cells (ELISA). As to conditions: compound 13 100 nM, atorvastatin 1 nM, ALK3-Fc 400 ng/mL. In kind it is cell-based, human. As to the method: Hepatoma G2 (HepG2) cells and human aortic endothelial cells (HAECs) were purchased from the American type culture collection (Manassas, Va.). HepG2 cells were maintained in Eagle's Minimum Essential Medium (EMEM) supplemented with 10% fetal bovine serum, 100 units/ml of penicillin, 0.1 mg/ml of streptomycin and glutamine. HAECs were cultured in endothelial cell basal medium (EBM 2) supplemented with the EBM2 bullet kit (Lonza, Basel, Switzerland). For experiments, cells were seeded into 6 or 12-well plates (BD Falcon, Franklin Lakes, N.J.) at a concentration of 0.5×10^6 cells per 5 mL of media. HAECs were maintained in EBM 2 with 0.1% FBS without additional growth factors for all experiments. HepG2 cells were grown to 70% confluence before they were incubated in EMEM enriched with 0.1% FBS. ApoB-100 measurements were performed in supernatants from HepG2 that had been incubated in EMEM containing 0.5% bovine serum albumin using a commercially available Human ApoB-100 ELISA kit (Mabtech AB, Nacka Strand, Sweden). BMP2 protein measurements were performed in supernatants from HAECs that had been incubated in EBM2 containing 0.1% FBS using a BMP2 ELISA kit (R&D Systems).

Consider `CC(C)c1c(C(=O)Nc2ccccc2)c(-c2ccccc2)c(-c2ccc(F)cc2)n1CC[C@@H](O)C[C@@H](O)CC(=O)O` [Atorvastatin, atorvastatin, reference compound], for which the “basal ApoB-100 secretion (absence of BMP2)” value was “reduced basal apolipoprotein B100 (ApoB-100) secretion”. In addition, the “BMP2-induced ApoB-100 secretion” value (BMP2 100 ng/mL) is “did not prevent the induction of ApoB-100 synthesis by BMP2”. Also, the “basal ApoB-100 secretion (absence of BMP2)” value (listed as atorvastatin) is given as “reduced ApoB-100 production in the absence of BMP2”.
